Source: patent US10869851B1, “Targeting NUR77 for mitigating perinatal neuroinflammation” (The United States Government as represented by the …, priority 2017, dated 2020)

Key:
Ccr2 = assay: Intrauterine LPS neuroinflammation model, fetal brain qRT-PCR of Ccr2; assay type: in vivo, CD1 mice
Method: (§1) Mice were randomly assigned to six groups: Group 1) 4 pups/PBS+normal saline (NS), Group 2) 4 pups/LPS+NS, Group 3) 4 pups/LPS+MgSO4, Group 4) 4 pups/LPS+BMZ, Group 5) 4 pups/LPS+MgSO4 and BMZ, and Group 6) 4 pups/LPS+TMPA. Except for the non-surgical control (Group 1), each group underwent intrauterine injection of either vehicle or LPS. Phosphate buffered saline (PBS) and normal saline (NS) were used for the control groups. […] Mice received 300 μl of normal saline prior to surgery as a precaution against dehydration. All surgical procedures were performed under anesthesia with isoflurane within a sterile environment using PPE and sterile surgical tools to prevent infection. E15.5 pup brains were compared 6 hours post LPS within the six treatment groups as described in Table 1:
(§2) Mice randomized to Groups 3-5 received a single subcutaneous (SQ) injection of 0.1 mg of MgSO4 and/or BMZ 30 minutes after intrauterine injection of LPS, per the Hallak protocol: 270 mg/kg SQ loading dose followed by 27 mg/kg SQ every 20 minutes for a four-hour duration. […]
(§3) A power analysis was conducted to determine the appropriate number of subjects. Using data, it was determined that a minimum number of pups per treatment group of […] was necessary to obtain statistical power at the 0.80 level.

Ikbkb = assay: Intrauterine LPS neuroinflammation model, fetal brain qRT-PCR of Ikbkb; assay type: in vivo, CD1 mice
Method: as §1, §2, §3

Nos2 = assay: Intrauterine LPS neuroinflammation model, fetal brain qRT-PCR of Nos2; assay type: in vivo, CD1 mice
Method: as §1, §2, §3

Nur77 expression = assay: Intrauterine LPS preterm labor/neuroinflammation model, Nur77 expression in fetal brain (microarray, qRT-PCR); set-up: species or system CD1 mice; details: mouse, in vivo
Method: as §1
Mice randomized to Groups 3-5 received a single subcutaneous (SQ) injection of 0.1 mg of MgSO4 and/or BMZ 30 minutes after intrauterine injection of LPS, per the Hallak protocol: 270 mg/kg SQ loading dose followed by 27 mg/kg SQ every 20 minutes for a four-hour duration. Mice randomized to Group 6 received a single dose of 50 mg/kg TMPA (approximately 2 mg of TMPA in 80 μl dimethyl sulfoxide (DMSO)) 30 minutes post-operative, as described by Zhan et al..

cerebral palsy = details: meta-analysis [9]; cited from earlier work
[1] = E15.5, 6 hours post LPS, LPS+treatment vs LPS

For `CCCCCCCC(=O)c1cc(OC)c(OC)c(OC)c1CC(=O)OCC` [TMPA, ethyl 2-(2,3,4-trimethoxy-6-octanoylphenyl)acetate], the “Ccr2 expression in embryonic brain” value (Ccr2; [1]) was “significantly lower vs. LPS”, the “Ikbkb expression in embryonic brain” value (Ikbkb; [1]) was “significantly lower vs. LPS” and the “Nos2 expression in embryonic brain” value (Nos2; [1]) was “significantly lower vs. LPS”.

With `O=S(=O)([O-])[O-].[Mg+2]` [MgSO4, magnesium sulfate] the “Nur77 expression (quantitative reverse-transcriptase PCR validation)” value (Nur77 expression) was “reduced”, the “Nur77 expression in fetal brain tissue (microarray)” value (Nur77 expression) was “significantly reduced” and the “Ccr2 expression in embryonic brain” value (Ccr2; mouse, in vivo) was “only significantly lower for Ikbkb”. The “Ikbkb expression in embryonic brain” value (Ikbkb; mouse, in vivo) was “significantly lower”, the “Nos2 expression in embryonic brain” value (Nos2; mouse, in vivo) was “only significantly lower for Ikbkb” and the “women in preterm labor treated per single case of cerebral palsy prevented” value (cerebral palsy) was 46.
